Where “and” joins values, the source holds several entries; their conditions need not be identical. Equal values may be shown once.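 Briefly, cells in 96-well plates were exposed to five compound concentrations for 48 h, and endpoints were estimated by linear interpolation. Abbreviation: GI50, concentration required for 50% inhibition of growth. TGI is the concentration that stops growth completely.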
Tested on: MDA-MB-468 breast
Assay: DTP human tumour cell line panel, 48 h

Row | SMILES | GI50 | TGI
1 | O=C(Nc1ccc(-n2cc(-c3ccncc3)c(-c3ccc(O)c(Cl)c3)n2)cc1)c1ccc(Cl)c(C(F)(F)F)c1 | 2.59 µM | 48.4 µM
2 | CN1CCN(Cc2ccc(NC(=O)c3cncc(C#Cc4cnc5ccc(NC6CCOCC6)nn45)c3)cc2C(F)(F)F)CC1 | 0.0338 µM and 0.0196 µM | 0.222 µM and 0.0672 µM
3 | NC1=NC(SCc2ccccc2CCl)c2ncn(Cc3ccccc3CCl)c2N1 (configuration not stated) | 1.71 µM | 3.72 µM
4 | Nc1nc(Cl)nc2c1ncn2C1OC(CO)C(O)C1F (configuration not stated) | 0.285 µM | 0.891 µM
5 | O=c1cc(-c2ccccc2)[nH]c2c1CCCC2 | 1.57 µM | 4.99 µM
6 | Cc1c(Nc2nccc3cc(CN4CC[C@@H](O)C4)cnc23)cccc1-c1cccc(-c2nc3cc(CN4CC[C@@H](C(=O)O)C4)cc(C#N)c3o2)c1C | 11.2 µM | 35.2 µM
7 | CCN(CC)CCCNCc1cc(-c2ccccc2)nc2cc(Cl)ccc12 | 1.93 µM | 3.92 µM
8 | COc1ccc(Nc2ncnc3ccc(-c4cncc(NS(C)(=O)=O)c4)cc23)cc1Cl | 0.785 µM | 3.1 µM
9 | CC(C)C[C@H](NC(=O)Cn1cccc(CNC(=O)c2ccccc2)c1=O)B(O)O | 0.139 µM | 0.716 µM
10 | Nc1c(C(=O)c2cccc(C(O)CO)c2)cnn1-c1ccc(F)cc1 (configuration not stated) | > 25 µM | > 25 µM
11 | CN1CCN(C(=O)c2ccc(NC(=O)Nc3ccc(-c4nc(N5CCOCC5)c5cccn5n4)cc3)cc2)CC1 | 0.021 µM | 0.077 µM
12 | COc1cc(F)c(F)cc1C(=O)c1cnc(NC2CCN(S(C)(=O)=O)CC2)nc1N | 3.65 µM | 10.8 µM
13 | CC(=O)c1c[nH]c2ccc(-c3ccnc(Nc4ccc(NC(=O)C5CCCC5)c(CN5CCOCC5)c4)n3)cc12 | 0.0219 µM | 0.0774 µM
14 | Cc1cc(=O)[nH]c(N/N=C/c2ccccc2O)n1 | 3.03 µM | 46.9 µM
15 | CN1CCN(Cc2ccc(NC(=O)c3[nH]ncc3Nc3ncnc4[nH]ccc34)cc2)CC1 | 0.247 µM | 0.562 µM
16 | COC1=C(OC)C(=O)C(C/C=C(\C)CC/C=C(\C)CC/C=C(\C)CC/C=C(\C)CC/C=C(\C)CC/C=C(\C)CC/C=C(\C)CC/C=C(\C)CC/C=C(\C)CCC=C(C)C)=C(C)C1=O | > 100 µM | > 100 µM
17 | O=C1OCC2=C1C(c1cccc(C(F)(F)F)c1)c1cc3c(cc1N2CCO)OCCO3 (configuration not stated) | 1.41 µM | > 33.3 µM
18 | COC(=O)CCC(=O)NC1=C(Nc2ccccc2)C(=O)c2ccccc2C1=O | 3.04 µM | 10.5 µM
19 | COc1ccc(C2NN=C3c4ccccc4CCC32)cc1 (configuration not stated) | – | 0.0416 µM
20 | Cc1nn(C)c2ncnc(N/N=C/c3cccc(O)c3O)c12 | 2.17 µM | 6.53 µM
21 | CN(C)CCN1C(=O)c2cccc3c(/C=C/CN4C(=O)c5cccc6cccc(c56)C4=O)ccc(c23)C1=O | 14 µM | 34.3 µM
22 | O=C(O)COc1ccc(OCC(=O)O)cc1 | 0.326 µM | 2.09 µM
23 | O=C1NC(=O)C(c2cccc(Cl)c2)=C1Nc1ccc(Cl)c(C(=O)O)c1 | > 25 µM | > 25 µM
24 | CN1CCN(CCCOc2ccc3nc(Nc4ccc(F)c(F)c4)ccc3c2)CC1 | 1.37 µM | 4.36 µM
25 | CCN1CCN(c2cc(C(=O)Nc3cccc(Nc4ccc5c(OC)cccc5n4)c3)cc(C(F)(F)F)c2)CC1 | 0.749 µM | 4.05 µM
26 | O=C1C(N2CCN(CCOCCO)CC2)=C(Cl)C(=O)c2ncccc21 | 19.3 µM | 39.3 µM
27 | CC1=C(CO)C(=O)O[C@@H]([C@@H](C)[C@H]2CC[C@H]3[C@@H]4C[C@H]5O[C@]56[C@@H](O)C=CC(=O)[C@]6(C)[C@H]4CC[C@]23C)C1 | 0.278 µM | 1.21 µM
28 | O=C1NC(=O)C(=Cc2cn(Cc3ccccc3)c3ccccc23)C(=O)N1 | 0.142 µM | 0.39 µM
29 | COc1ccc2nc(C)cc(Sc3nc4ccccc4s3)c2c1 | 2.2 µM | 11.4 µM

— PubChem BioAssay (NCI)
